The experiment deals with hQC (Homo sapiens, UniProt Q16769). The experiment can be described thus: Inhibitor assay for glutaminyl cyclase activity (fluorometric, H-Gln-βNA / H-Gln-AMC). Type of experiment: biochemical. How it is done: All measurements were performed with a BioAssay Reader HTS-7000Plus for microplates (Perkin Elmer) at 30° C. QC activity was evaluated fluorometrically using H-Gln-βNA. The samples consisted of 0.2 mM fluorogenic substrate, 0.25 U pyroglutamyl aminopeptidase (Unizyme, Hørsholm, Denmark) in 0.2 M Tris/HCl, pH 8.0 containing 20 mM EDTA and an appropriately diluted aliquot of QC in a final volume of 250 μl. Excitation/emission wavelengths were 320/410 nm. The assay reactions were initiated by addition of glutaminyl cyclase. QC activity was determined from a standard curve of β-naphthylamine under assay conditions. One unit is defined as the amount of QC catalyzing the formation of 1 μmol pGlu-βNA from H-Gln-βNA per minute under the described conditions.
Chain of hQC (Q16769 29-361): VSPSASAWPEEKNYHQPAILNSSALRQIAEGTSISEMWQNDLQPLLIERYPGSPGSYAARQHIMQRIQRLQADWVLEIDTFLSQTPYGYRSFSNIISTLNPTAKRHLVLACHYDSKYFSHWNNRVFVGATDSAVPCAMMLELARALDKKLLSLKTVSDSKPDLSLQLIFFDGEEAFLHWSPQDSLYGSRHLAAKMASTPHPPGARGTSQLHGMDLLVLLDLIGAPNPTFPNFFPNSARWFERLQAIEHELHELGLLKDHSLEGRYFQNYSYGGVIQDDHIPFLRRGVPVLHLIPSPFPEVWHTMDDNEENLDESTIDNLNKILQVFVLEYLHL
In a second fluorometric assay, QC activity was determined using H-Gln-AMC as substrate. Reactions were carried out at 30° C. utilizing the NOVOStar reader for microplates (BMG labtechnologies). The samples consisted of varying concentrations of the fluorogenic substrate, 0.1 U pyroglutamyl aminopeptidase (Qiagen) in 0.05 M Tris/HCl, pH 8.0 containing 5 mM EDTA and an appropriately diluted aliquot of QC in a final volume of 250 μl. Excitation/emission wavelengths were 380/460 nm. The assay reactions were initiated by addition of glutaminyl cyclase. QC activity was determined from a standard curve of 7-amino-4-methylcoumarin under assay conditions. The kinetic data were evaluated using GraFit sofware.
For inhibitor testing, the sample composition was the same as described above, except of the putative inhibitory compound added. For a rapid test of QC-inhibition, samples contained 4 mM of the respective inhibitor and a substrate concentration at 1 KM. For detailed investigations of the inhibition and determination of Ki-values, influence of the inhibitor on the auxiliary enzymes was investigated first. In every case, there was no influence on either enzyme detected, thus enabling the reliable determination of the QC inhibition. The inhibitory constant was evaluated by fitting the set of progress curves to the general equation for competitive inhibition using GraFit software.

Read-outs that look alike come from different tables or passages of the source.

As a reminder, the IC50 is the concentration that inhibits the measured activity by half. In the case of `CCCCCC1=C(O)C(=O)N(CCCn2ccnc2)C1c1c[nH]c2cc(C)ccc12` (stereo not drawn) [Compound 202, 3-Hydroxy-1-(3-imidazol-1-yl-propyl)-5-(6-methyl-1H-indol-3-yl)-4-pentyl-1,5-dihydro-pyrrol-2-one], the IC50 (read-out: IC50) is 40 nM.

As to `CCC1=C(O)C(=O)N(CCCn2ccnc2)C1/C=C/c1ccccc1` (stereo not drawn) [Compound 235, 4-Ethyl-3-hydroxy-1-(3-imidazol-1-yl-propyl)-5-(styryl)-1,5-dihydro-pyrrol-2-one], the concentration for half-maximal inhibition (IC50) (read-out: IC50) is 5800 nM. `CC(C)CC(=O)C1=C(O)C(=O)N(c2ccc3[nH]cnc3c2)C1c1ccco1` (stereo not drawn) [Compound 413, 1-(1H-Benzoimidazol-5-yl)-5-furan-2-yl-3-hydroxy-4-(3-methyl-butyryl)-1,5-dihydro-pyrrol-2-one]: where the note is “read-out: IC50”, the IC50 was 1480 nM.

With `O=C1C(O)=C(c2ccc(O)cc2)C(c2coc3ccccc3c2=O)N1c1ccc2[nH]cnc2c1` (stereo not drawn) [Compound 286, 1-(1H-Benzoimidazol-5-yl)-3-hydroxy-4-(4-hydroxy-phenyl)-5-(4-oxo-4H-chromen-3-yl)-1,5-dihydro-pyrrol-2-one], under “read-out: IC50”, the 50% inhibitory concentration (IC50) stood at 3550 nM. On the same count and under the same terms, then `CCCC1C(c2ccc(O)cc2)=C(O)C(=O)N1CCCn1ccnc1` (stereo not drawn) [Compound 150, 3-Hydroxy-4-(4-hydroxy-phenyl)-1-(3-imidazol-1-yl-propyl)-5-propyl-1,5-dihydro-pyrrol-2-one], with 40 nM; and `O=C1C(O)=C(c2c[nH]c3ccccc23)C(c2ccncc2)N1CCCn1ccnc1` (stereo not drawn) [Compound 136, 3-Hydroxy-1-(3-imidazol-1-yl-propyl)-4-(1H-indol-3-yl)-5-pyridin-4-yl-1,5-dihydro-pyrrol-2-one], with 40 nM; and `CC(=O)C1=C(O)C(=O)N(c2ccc3[nH]cnc3c2)C1c1cnc2ccccc2c1` (stereo not drawn) [Compound 360, 4-Acetyl-1-(1H-benzoimidazol-5-yl)-3-hydroxy-5-quinolin-3-yl-1,5-dihydro-pyrrol-2-one], with 40 nM. Still for that read-out and setting: the figure for `CC1=C(O)C(=O)N(CCCn2ccnc2)C1c1ccccc1O` (stereo not drawn) [Compound 28, 3-Hydroxy-5-(2-hydroxy-phenyl)-1-(3-imidazol-1-yl-propyl)-4-methyl-1,5-dihydro-pyrrol-2-one] is 400 nM; for `CC(C)C1=C(O)C(=O)N(CCCn2ccnc2)C1Cc1ccccc1` (stereo not drawn) [Compound 68, 5-Benzyl-3-hydroxy-1-(3-imidazol-1-yl-propyl)-4-isopropyl-1,5-dihydro-pyrrol-2-one] it is 40 nM. On to `O=C1C(O)=C(c2c[nH]c3ccccc23)C(c2cnc3ccccc3c2)N1c1ccc2[nH]cnc2c1` (stereo not drawn) [Compound 422, 1-(1H-Benzoimidazol-5-yl)-3-hydroxy-4-(1H-indol-3-yl)-5-quinolin-3-yl-1,5-dihydro-pyrrol-2-one], for which the IC50 amounted to 575 nM (compound from preparative synthesis, purified, read-out: IC50 hQC) and 4 nM (read-out: IC50). For the compound `CCCCCC1=C(O)C(=O)N(c2ccc3[nH]cnc3c2)C1c1cccc(F)c1` (stereo not drawn) [Compound 323, 1-(1H-Benzoimidazol-5-yl)-5-(3-fluoro-phenyl)-3-hydroxy-4-pentyl-1,5-dihydro-pyrrol-2-one], the IC50 (read-out: IC50) was found to be 1660 nM. The same measure, in the same setting: the figure for `CCCCC1C(c2c[nH]c3ccccc23)=C(O)C(=O)N1CCCn1ccnc1` (stereo not drawn) [Compound 141, 5-Butyl-3-hydroxy-1-(3-imidazol-1-yl-propyl)-4-(1H-indol-3-yl)-1,5-dihydro-pyrrol-2-one] is 400 nM; for `Cc1ccc(O)c(C2C(c3c[nH]c4ccccc34)=C(O)C(=O)N2c2ccc3[nH]cnc3c2)c1` (stereo not drawn) [Compound 332, 1-(1H-Benzoimidazol-5-yl)-3-hydroxy-5-(2-hydroxy-5-methyl-phenyl)-4-(1H-indol-3-yl)-1,5-dihydro-pyrrol-2-one] it is 7690 nM.

In the case of `O=C1C(O)=C(c2ccccc2)C(c2cccc(Cl)c2)N1CCCn1ccnc1` (stereo not drawn) [Compound 109, 5-(3-Chloro-phenyl)-3-hydroxy-1-(3-imidazol-1-yl-propyl)-4-phenyl-1,5-dihydro-pyrrol-2-one], the IC50 (read-out: IC50) is 400 nM. The same measure, in the same setting: then `CC(C)(C)C(=O)C1=C(O)C(=O)N(c2ccc3[nH]cnc3c2)C1c1ccc(-c2ccccn2)cc1` (stereo not drawn) [Compound 401, 1-(1H-Benzoimidazol-5-yl)-4-(2,2-dimethyl-propionyl)-3-hydroxy-5-(4-pyridin-2-yl-phenyl)-1,5-dihydro-pyrrol-2-one], with 3010 nM. The same measure, in the same setting: the figure for `CC1=C(O)C(=O)N(c2ccc3[nH]cnc3c2)C1c1ccccc1F` (stereo not drawn) [Compound 386, 1-(1H-Benzoimidazol-5-yl)-5-(2-fluoro-phenyl)-3-hydroxy-4-methyl-1,5-dihydro-pyrrol-2-one] is 1930 nM; for `CC(C)CC(=O)C1=C(O)C(=O)N(c2ccc3[nH]cnc3c2)C1c1ccc(-c2ccccn2)cc1` (stereo not drawn) [Compound 455, 1-(1H-Benzoimidazol-5-yl)-3-hydroxy-4-(3-methyl-butyryl)-5-(4-pyridin-2-yl-phenyl)-1,5-dihydro-pyrrol-2-one] it is 130 nM. Take `Cn1cc(C2C(CC(=O)O)=C(O)C(=O)N2c2ccc3[nH]cnc3c2)c2ccccc21` (stereo not drawn) [Compound 322, [1-(1H-Benzoimidazol-5-yl)-4-hydroxy-2-(1-methyl-1H-indol-3-yl)-5-oxo-2,5-dihydro-1H-pyrrol-3-yl]-acetic acid]: the 50% inhibitory concentration (IC50) (read-out: IC50) amounted to 5800 nM. As for `CCC/C=C/C1C(CC)=C(O)C(=O)N1CCCn1ccnc1` (stereo not drawn) [Compound 222, 4-Ethyl-3-hydroxy-1-(3-imidazol-1-yl-propyl)-5-(pent-1-enyl)-1,5-dihydro-pyrrol-2-one], under “read-out: IC50”, the IC50 is 3100 nM. Same read-out and setting: then `CCCC(=O)C1=C(O)C(=O)N(c2ccc3[nH]cnc3c2)C1c1cccc(C)n1` (stereo not drawn) [Compound 334, 1-(1H-Benzoimidazol-5-yl)-4-butyryl-3-hydroxy-5-(6-methyl-pyridin-2-yl)-1,5-dihydro-pyrrol-2-one], with 2650 nM. Same read-out and setting: then `CCCCCC1=C(O)C(=O)N(CCCn2ccnc2)C1CCCC` (stereo not drawn) [Compound 214, 5-Butyl-3-hydroxy-1-(3-imidazol-1-yl-propyl)-4-pentyl-1,5-dihydro-pyrrol-2-one], with 400 nM; and `O=C(C1=C(O)C(=O)N(c2ccc3[nH]cnc3c2)C1c1ccc(CO)o1)c1ccncc1` (stereo not drawn) [Compound 272, 1-(1H-Benzoimidazol-5-yl)-3-hydroxy-5-(5-hydroxymethyl-furan-2-yl)-4-(pyridine-4-carbonyl)-1,5-dihydro-pyrrol-2-one], with 3730 nM.

Consider `CCC1=C(O)C(=O)N(CCCn2ccnc2)C1c1cccc(O)c1` (stereo not drawn) [Compound 252, 4-Ethyl-3-hydroxy-5-(3-hydroxy-phenyl)-1-(3-imidazol-1-yl-propyl)-1,5-dihydro-pyrrol-2-one], for which the half-inhibitory concentration (IC50) (read-out: IC50) was 400 nM. Same read-out and setting: the figure for `CC1=C(O)C(=O)N(c2ccc3[nH]cnc3c2)C1c1coc2ccc(C)cc2c1=O` (stereo not drawn) [Compound 328, 1-(1H-Benzoimidazol-5-yl)-3-hydroxy-4-methyl-5-(6-methyl-4-oxo-4H-chromen-3-yl)-1,5-dihydro-pyrrol-2-one] is 310 nM. As for `CCCCCC1C(C(C)C)=C(O)C(=O)N1CCCn1ccnc1` (stereo not drawn) [Compound 62, 3-Hydroxy-1-(3-imidazol-1-yl-propyl)-4-isopropyl-5-pentyl-1,5-dihydro-pyrrol-2-one], for the setting “read-out: IC50”, the IC50 came out at 40 nM. On the same count and under the same terms, then `O=C1C(O)=C(c2ccccc2)C(c2ccc(Cl)c(Cl)c2)N1c1ccc2[nH]cnc2c1` (stereo not drawn) [Compound 264, 1-(1H-Benzoimidazol-5-yl)-5-(3,4-dichloro-phenyl)-3-hydroxy-4-phenyl-1,5-dihydro-pyrrol-2-one], with 1570 nM.

Source of the values: patent US8278345B2, “Inhibitors of glutaminyl cyclase” (Probiodrug AG, priority 2006, dated 2012).
